Where two headings read alike, the source gives them in different places.
Experiments:
[1] = molecular target: MC3R (Homo sapiens, UniProt P41968); assay: Competitive binding with 125I-NDP-MSH, HEK293 membrane preparations, MC3R
Protocol: (§1) Binding analysis was done by Cerep laboratories (Paris, France) with coded samples.
(§2) The mixtures were filtered through 96-well GFC filters (Millipore, Billerica, Mass.), washed 3 times with binding buffer without BSA, dried and counted.
(§3) A competitive binding assay using a MCR panel including MCR 1, 3, 4, and 5 was performed.

[2] = Serum levels after a single dose in mice; type: in vivo
[3] = Peptide stability in plasma or PBS in vitro at 37° C.; type: in vitro ADME; conditions: 24 hours
Protocol: The stability of RI-α-MSH was determined by incubation in plasma or PBS in vitro at 37° C. for 24 hours. Aliquots were taken and proteins precipitated with 2 volumes of acetonitrile. α-MSH was used as a control and bradykinin as an internal standard. After centrifugation, samples were frozen at −80° C. until LC/MS/MS (MRM) analysis using a C18 column separation and positive electrospray ionization mode.

[4] = test system: C57BL/6 mice; assay: MOG35-55 primed mice treated in the priming phase: recall response, cytokines, macrophage markers; type: in vivo
Protocol: C57BL/6 mouse splenocytes and lymph node cells were cultured in 96 well plates 5×10^5 cells/well. MOG35-55 or OVA 257-264 peptide was added to wells at a concentration of 25 μg/ml. Supernatant was collected at 48 hrs after MOG peptide stimulation. After 3 days in culture cells were pulsed with [3H] thymidine at 1 μCi/well for 8 hrs. Thymidine incorporation was measured by cpm.
Total RNA was extracted from tissues with TRIZOL® (Invitrogen, Carlsbad, Calif.). 1 μg of total RNA was reverse transcribed and used in quantitative PCR by using SYBR® green incorporation with reagents from Applied Biosystems (Foster City, Calif.) on an ABI 7900. A cDNA standard was run in each PCR for cytokine targets and message concentrations were normalized to mouse β-actin. […] The sequences for mouse IL-10 primers were forward: […] (SEQ ID NO:29) and reverse: […] (SEQ ID NO:30) (2). The sequences for mouse β-actin primers were: forward […] (SEQ ID NO:31) and reverse […] (SEQ ID NO:32) (3).
Flow cytometric analysis of inflammatory cytokine profiles of mouse serum or cell supernatant were measured using the Cytometric Bead Array Kit (CBA) made by BD Biosciences (San Jose, Calif.). Samples were processed according to the manufacturer's protocol.
On Day 9, spleen and draining lymph nodes were harvested and analyzed for recall responses to MOG35-55 peptide in vitro by [3H] thymidine incorporation.
Cytokine levels were evaluated through a cytometric bead array by flow cytometry.
Spleens from individual mice were harvested on Day 9 and mRNA cytokine expression was quantitated using real time PCR. […] Naïve mice that were not immunized with MOG peptide were used to quantitate baseline mRNA levels of TNF-α and IL-10.
Blood serum samples were also collected on day 9 of the study and evaluated for cytokine levels: TNF-α, MCP-1, IL-12, IL-10, and IL-6 (FIGS. 13C and 13D).

[5] = test system: B10.RIII mice
Protocol: Female B10.RIII were injected subcutaneously at two sites (between shoulder blades and in pelvic region) with a total of 200 μg interphotoreceptor binding protein peptide (IRBP) 161-180 (New England Peptide; Fitchburg, Mass.), respectively in 2 mg/ml complete Freund's adjuvant (CFA; Sigma, St. Louis, Mo.) with mycobacterium tuberculosis H37Ra (Difco, Detroit, Mich.).
The eyes of mice are dilated using one or two drops of Mydriacyl 1% (Alcon; Humacao, Puerto Rico) and rested in a darkened room for approximately 5 min. Mice are manually restrained and the retinas of both eyes are visualized using an indirect ophthalmoscope with a 78 diopter lens. The eyes are scored for inflammation using a progressive scoring system between 0-5. Score 0: Normal retina. Score 1: Vascular inflammation proximal to the optic nerve. Score 2: <5 inflammatory lesions confined to one quadrant of the eye. Score 3: >5 inflammatory lesions in more than one quadrant of the eye. Score 4: Inflammatory lesions are contiguous. Score 5: Retinal detachment. Whole eyes from mice were harvested and placed in PBS. The eyes were embedded in OCT media for frozen fixation. 5-μm sections were cut through the papillary-optic nerve plane and stained with hematoxylin and eosin.
Uveitis was induced in B10.RIII mice with an injection of IRBP 161-180 and CFA.
Current forms of therapy for uveitis include corticosteroids and immunosuppressive agents. […] Uveitis was induced in B10.RIII mice with IRBP161-180 and CFA injections. […] Mice were treated daily for 21 days.
EAU was induced in female B10.RIII mice with IRBP 161-180.
Uveitis was induced in B10.RIII mice with IRBP161-180 and CFA injections. […] Individual weights of the mice were recorded at 4 timepoints throughout the course of disease.
B10.RIII mice were injected with IRBP161-180 and CFA to induce uveitis. […] Treatment was initiated at peak time of disease when mice reached eye scores of 4 which included inflammatory lesions throughout the posterior segment of the eye and possible hemorrhaging.

[6] = molecular target: MC1R (Homo sapiens, UniProt Q01726); assay: Competitive binding with 125I-NDP-MSH, HEK293 membrane preparations, MC1R;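 also: Read-out: receptor-bound radioligand retained by filtration and counted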
Protocol: as §1, §2, §3

[7] = 100 μg i.p. days 2-8, harvested day 9

MC1R, sequence (Q01726 whole entry): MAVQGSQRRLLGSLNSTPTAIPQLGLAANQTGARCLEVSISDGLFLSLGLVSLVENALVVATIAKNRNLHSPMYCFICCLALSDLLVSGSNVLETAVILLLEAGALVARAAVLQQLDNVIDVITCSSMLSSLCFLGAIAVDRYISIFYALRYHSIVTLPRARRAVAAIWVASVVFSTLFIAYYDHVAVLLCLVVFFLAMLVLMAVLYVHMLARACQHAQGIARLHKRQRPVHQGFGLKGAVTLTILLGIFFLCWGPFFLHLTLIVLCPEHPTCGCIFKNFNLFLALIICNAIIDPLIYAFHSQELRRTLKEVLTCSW
MC3R, sequence (P41968 whole entry): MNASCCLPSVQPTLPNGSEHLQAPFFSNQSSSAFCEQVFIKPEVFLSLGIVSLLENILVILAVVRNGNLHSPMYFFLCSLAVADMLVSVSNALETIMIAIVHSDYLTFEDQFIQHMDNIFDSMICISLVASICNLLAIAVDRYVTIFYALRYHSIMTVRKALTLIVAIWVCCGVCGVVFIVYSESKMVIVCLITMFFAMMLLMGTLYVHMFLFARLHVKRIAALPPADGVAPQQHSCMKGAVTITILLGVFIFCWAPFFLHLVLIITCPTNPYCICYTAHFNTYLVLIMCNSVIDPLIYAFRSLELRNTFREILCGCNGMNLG

CSCC[C@@H](NC(=O)[C@@H](CCC(=O)O)NC(=O)[C@@H](Cc1c[nH]cn1)NC(=O)[C@@H](Cc1ccccc1)NC(=O)[C@@H](CCCNC(=N)N)NC(=O)[C@@H](Cc1c[nH]c2ccccc12)NC(=O)CNC(=O)[C@@H](CCCCN)NC(=O)[C@H]1CCCN1C(=O)[C@H](NC(C)=O)C(C)C)C(=O)N[C@H](CO)C(=O)N[C@H](Cc1ccc(O)cc1)C(=O)N[C@H](CO)C(N)=O [RI-MSH, vpkGwrfhemsys]
Ki [1]: > 30 µM
binding to MCR-3 (in words) ([1]; MCR panel 1, 3, 4, 5): bind only to MCR-1
serum half-life compared (in words) ([2]; mouse, in vivo, iv): longer serum half-life than native α-MSH
serum levels after a single dose (in words) ([2]; single dose of 100 μg, mice, n=5): measurable serum levels of RI-α-MSH after 24 hrs
stability in PBS (in words) [3]: stable both in PBS and plasma
stability in plasma (in words) ([3]; in vitro): no detectable degradation over 24 hours
proliferative recall response of spleen cells to MOG35-55 (in words) [4, 7]: slight reduction in recall responses
recall response of lymph node cells to MOG peptide (in words) [4, 7]: did not show a significant difference
expression of CD86, CD40, CD14 on splenic CD11b+ or F4/80+ macrophages (in words) ([4]; 7 days of daily dosing, 100 μg/mouse): no difference in the expression levels
TNF-α, IFNγ, IL-6 and MCP-1 levels in spleen cell supernatant vs PBS (in words) ([4]; cells stimulated with MOG35-55 in vitro): decrease
serum IL-6 vs PBS (in words) ([4]; day 9): decrease
serum IL-10 (in words) ([4]; day 9): no difference
serum MCP-1 vs PBS (in words) ([4]; day 9): significantly decreased
serum TNF-α and IL-12 vs PBS (in words) ([4]; day 9): decrease
IL-10 and TNF-α mRNA in spleen vs PBS (in words) ([4]; priming phase, treated days 2-8, day 9): decreased levels
uveitis course (in words) ([5]; 3 μg/mouse i.p. daily from eye scores of 4): did not reduce or inhibit disease
uveitis course (in words) ([5]; 10 μg/mouse i.p. daily from eye scores of 4): rapidly ameliorated uveitis
mean clinical eye scores vs scrambled peptide (in words) ([5]; 100 μg/mouse i.p. daily for 13 days from eye scores 2-3, days 15, 21 and 23): significant reduction
uveitis course (in words) ([5]; 100 μg/mouse i.p. daily from eye scores of 4): rapidly ameliorated uveitis
mice with individual maximum eye scores ≤1 ([5]; 100 μg/mouse i.p. daily, day 23 after disease induction): 75%
efficacy in uveitis, treatment at onset of disease (in words) ([5]; 100 μg/mouse i.p., from eye score 1, data not shown): had efficacy in uveitis
mean clinical eye scores vs PBS (in words) ([5]; 100 μg/mouse i.v. daily from eye scores of 2): significant reduction of mean clinical eye scores
eye score in retina images (median of group) ([5]; 100 μg/mouse i.v. daily from late stage, day 13 after start of treatment): 1
histological examination of the eyes (in words) ([5]; 100 μg/mouse i.v. daily, 10 days after start of treatment): reduced pathology in the eye
mice with eye scores of 3 or greater ([5]; 100 μg/mouse i.v. daily, day 13 after start of treatment): 2 of the 11
mice with a maximum eye score of 3 or greater ([5]; 100 μg/mouse i.v. daily, day 16, four days after start of treatment): 0 of the 8
affinity for MC1R lower than that of the native MSH peptide [6]: 11 fold
Ki ([6]; Ki MC1R, competition with 125I-NDP-MSH): 4.6 ± 1.3 nM
binding to MCR-1 (in words) ([6]; MCR panel 1, 3, 4, 5): bind only to MCR-1

From US10385108B2, “Peptide analogs of alpha-melanocyte stimulating hormone” (Genzyme Corporation, priority 2008, dated 2019)
